One test concerns osteoclast precursors. In words: Osteoclast tartrate-resistant acid phosphatase assay. The following applies: 7-14 days, RANKL and M-CSF. The class given is cell-based. As to the method:
Diluted compound was transferred to a 384-well black clear bottom plate. Two-thousand five hundred osteoclast precursors (Lonza, Walkersville, Md.) were added per well in growth media containing Receptor Activator of Nuclear Factor Kappa-beta ligand (RANKL) and M-CSF (R&D Systems, Minneapolis, Minn.). Plates were incubated for 7-14 days at 37 degrees Celsius, 5% CO2, and 95% humidity to allow differentiation of osteoclast precursors. […] Tartrate-resistant acid phosphatase activity in the supernatant samples was determined using an acid phosphatase assay kit (Sigma, St. Louis, Mo.). Absorbance was measured at 550 nm using a plate reader. Data was analyzed using Prism software (Graphpad, San Diego, Calif.) to calculate IC50 values.

The next test has as its system M-NFS-60 cells. Description: M-NFS-60 cell proliferation assay. Format: cell-based. The conditions noted are these: 67 h incubation, resazurin. Background: Alamar Blue is a resazurin reagent that responds to reducing activity.
For test [1], the target named is T1, phospho-FMS in THP-1 cells (Homo sapiens, UniProt P07333).
T1 construct: endogenous in cells; host or cells: THP-1 (ATCC TIB-202)
T1 sequence (P07333 20-972): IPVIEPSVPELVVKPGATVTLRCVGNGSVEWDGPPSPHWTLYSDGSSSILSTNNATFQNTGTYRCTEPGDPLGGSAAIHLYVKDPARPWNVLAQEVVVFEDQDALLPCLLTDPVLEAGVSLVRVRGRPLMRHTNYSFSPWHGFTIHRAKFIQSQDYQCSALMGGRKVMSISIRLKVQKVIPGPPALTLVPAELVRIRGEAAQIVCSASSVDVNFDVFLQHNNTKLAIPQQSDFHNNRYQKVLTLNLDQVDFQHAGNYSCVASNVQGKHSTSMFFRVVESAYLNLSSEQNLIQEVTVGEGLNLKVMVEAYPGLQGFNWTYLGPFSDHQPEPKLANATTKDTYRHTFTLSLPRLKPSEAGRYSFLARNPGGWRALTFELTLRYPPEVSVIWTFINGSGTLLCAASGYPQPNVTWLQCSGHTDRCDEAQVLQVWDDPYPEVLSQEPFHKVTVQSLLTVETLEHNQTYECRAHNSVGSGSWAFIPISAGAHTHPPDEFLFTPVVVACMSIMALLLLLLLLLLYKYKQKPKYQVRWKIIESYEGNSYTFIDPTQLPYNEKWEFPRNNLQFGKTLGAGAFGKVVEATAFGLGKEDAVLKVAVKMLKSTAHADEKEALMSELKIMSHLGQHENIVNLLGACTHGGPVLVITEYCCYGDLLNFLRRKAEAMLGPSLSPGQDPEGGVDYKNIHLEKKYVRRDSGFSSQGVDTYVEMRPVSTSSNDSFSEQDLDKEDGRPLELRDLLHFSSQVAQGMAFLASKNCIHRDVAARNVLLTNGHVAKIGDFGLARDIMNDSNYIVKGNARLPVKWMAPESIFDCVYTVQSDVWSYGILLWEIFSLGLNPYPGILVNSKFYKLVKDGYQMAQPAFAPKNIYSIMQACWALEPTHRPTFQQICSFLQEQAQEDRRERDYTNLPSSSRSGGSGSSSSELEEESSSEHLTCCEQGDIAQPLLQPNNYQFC
Description: Phospho-FMS ELISA assay in THP-1 cells. The class given is cell-based. The conditions noted are these: 4 hours compound, M-CSF stimulated; read-out: pFMS inhibition in THP-1 cells. On the technique in general: In an ELISA, binding on a coated surface is turned into a signal by an enzyme label.
Description: In a separate 96 well black clear bottom plate, one hundred and fifty thousand THP-1 cells were added per well in 100 μL in assay medium. Fifty microliters of diluted compound was then added to the cells. […] Lysates were prepared and used to perform the phospho-FMS ELISA as described by the manufacturer (catalog #DYC3268, R & D Systems, Minneapolis, Minn.). GraphPad Prism was used to calculate IC50 values obtained from data generated from the ELISA assay.

In test [2] the target is T2, unphosphorylated PDGFRβ kinase (uPDGFRβ, Seq. ID No. 3) (Homo sapiens, UniProt P09619).
T2 construct: purchased DeCode
T2 sequence (P09619 557-1105): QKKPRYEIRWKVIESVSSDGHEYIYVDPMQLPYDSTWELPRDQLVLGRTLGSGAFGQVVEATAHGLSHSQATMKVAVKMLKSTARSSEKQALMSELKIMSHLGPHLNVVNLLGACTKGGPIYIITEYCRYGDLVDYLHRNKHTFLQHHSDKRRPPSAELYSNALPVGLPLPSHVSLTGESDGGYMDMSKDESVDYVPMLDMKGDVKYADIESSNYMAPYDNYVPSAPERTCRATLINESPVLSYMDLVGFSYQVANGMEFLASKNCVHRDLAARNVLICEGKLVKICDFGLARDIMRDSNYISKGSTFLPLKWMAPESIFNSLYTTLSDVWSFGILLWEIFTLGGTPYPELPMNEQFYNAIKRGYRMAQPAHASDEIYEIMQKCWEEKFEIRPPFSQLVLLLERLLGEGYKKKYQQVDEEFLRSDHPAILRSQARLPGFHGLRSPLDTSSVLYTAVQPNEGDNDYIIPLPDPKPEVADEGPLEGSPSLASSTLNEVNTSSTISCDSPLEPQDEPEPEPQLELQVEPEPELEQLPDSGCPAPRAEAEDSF
Description: Unphosphorylated PDGFRβ kinase assay (pyruvate kinase/lactate dehydrogenase coupled). The conditions noted are these: ATP 500 μM. Format: biochemical. The source says: Unphosyhorylated PDGFRβ (uPDGFRβkinase (Seq. ID No. 3) assay

Test [3] concerns the target T3, unphosphorylated c-FMS kinase (uFMS, Seq. ID no. 1) (Homo sapiens, UniProt P07333).
T3 construct: purchased Millipore
T3 sequence (P07333 538-972): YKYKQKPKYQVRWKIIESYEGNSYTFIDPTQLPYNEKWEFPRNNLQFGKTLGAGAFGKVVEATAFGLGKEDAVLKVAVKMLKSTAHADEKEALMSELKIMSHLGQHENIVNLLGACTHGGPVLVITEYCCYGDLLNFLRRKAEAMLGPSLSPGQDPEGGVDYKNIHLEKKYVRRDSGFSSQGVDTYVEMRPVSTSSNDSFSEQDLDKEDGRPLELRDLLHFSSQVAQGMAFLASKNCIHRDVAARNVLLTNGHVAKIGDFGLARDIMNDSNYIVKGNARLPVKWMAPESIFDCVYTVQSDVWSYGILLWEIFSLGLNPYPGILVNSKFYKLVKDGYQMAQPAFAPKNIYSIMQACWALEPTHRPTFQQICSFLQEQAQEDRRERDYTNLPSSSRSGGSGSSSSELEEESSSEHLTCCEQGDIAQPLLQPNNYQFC
Description: uFMS kinase assay (pyruvate kinase/lactate dehydrogenase coupled). The class given is biochemical. The following applies: ATP 500 μM.
Description: In this assay, the oxidation of NADH (thus the decrease at A340 nm) was continuously monitored spectrophometrically. The reaction mixture (100 μL) contained FMS (purchased from Millipore) (10 nM), polyE4Y (1 mg/mL), MgCl2 (10 mM), pyruvate kinase (4 units), lactate dehydrogenase (0.7 units), phosphoenol pyruvate (1 mM), NADH (0.28 mM) and ATP (500 μM) in 90 mM Tris buffer containing 0.2% octyl-glucoside and 1% DMSO, pH 7.5. The inhibition reaction was started by mixing serial diluted test compound with the above reaction mixture. The absorption at 340 nm was monitored continuously for 4 hours at 30° C. on Synergy 2 plate reader. The reaction rate was calculated using the 3 to 4 h time frame. Percent inhibition was obtained by comparison of reaction rate with that of a control (i.e. in the absence of test compound). IC50 values were calculated from a series of percent inhibition values determined at a range of inhibitor concentrations using software routines as implemented in the GraphPad Prism software package.

Test [4] addresses T4, unphosphorylated c-KIT kinase (uKIT, Seq. ID no. 2) (Homo sapiens, UniProt P10721).
T4 construct: uKit with N-terminal GST fusion used for
In words: uKit kinase assay (pyruvate kinase/lactate dehydrogenase coupled). The class given is biochemical. The following applies: ATP 2000 μM.
Description: In this assay, the oxidation of NADH (thus the decrease at A340 nm) was continuously monitored spectrophometrically. […] The inhibition reaction was started by mixing serial diluted test compound with the above reaction mixture. The absorption at 340 nm was monitored continuously for 4 hours at 30° C. on Synergy 2 plate reader (BioTech).

Each structure is given as a SMILES string.

T4 sequence (P10721 with tags, fused parts or gaps): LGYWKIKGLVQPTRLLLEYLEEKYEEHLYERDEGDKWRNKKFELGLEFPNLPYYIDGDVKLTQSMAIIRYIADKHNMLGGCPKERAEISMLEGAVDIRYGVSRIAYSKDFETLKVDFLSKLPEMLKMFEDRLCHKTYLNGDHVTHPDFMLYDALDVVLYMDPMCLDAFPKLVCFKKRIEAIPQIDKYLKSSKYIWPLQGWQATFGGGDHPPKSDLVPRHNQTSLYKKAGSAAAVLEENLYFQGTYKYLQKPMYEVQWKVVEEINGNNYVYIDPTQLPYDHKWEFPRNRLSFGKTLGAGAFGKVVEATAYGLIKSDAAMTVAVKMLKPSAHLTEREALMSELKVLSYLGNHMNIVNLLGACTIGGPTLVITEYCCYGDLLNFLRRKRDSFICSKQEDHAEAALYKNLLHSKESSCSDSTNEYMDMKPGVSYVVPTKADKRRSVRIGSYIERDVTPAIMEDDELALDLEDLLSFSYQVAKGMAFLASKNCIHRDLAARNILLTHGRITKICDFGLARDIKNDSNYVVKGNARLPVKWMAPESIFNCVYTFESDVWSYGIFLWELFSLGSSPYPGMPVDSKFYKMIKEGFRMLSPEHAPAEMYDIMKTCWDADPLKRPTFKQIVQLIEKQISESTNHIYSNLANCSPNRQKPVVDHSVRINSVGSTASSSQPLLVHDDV
Description for M-NFS-60 cells: M-NFS-60 Cell Proliferation Assay A serial dilution of test compound was dispensed into a 384-well black clear bottom plate (Corning, Corning, N.Y.). Two thousand five hundred cells were added per well in 50 μL complete growth medium. […] IC50 values were calculated from a series of percent inhibition values determined at a range of inhibitor concentrations using software routines as implemented in the GraphPad Prism software package.

For `CC(=O)Nc1cc(Oc2ccc(NC(=O)NC(=O)C3CCCC3)nc2)ccn1` [Example 2, N-((5-((2-acetamidopyridin-4-yl)oxy)pyridin-2-yl)carbamoyl)cyclopentanecarboxamide], the IC50 was < 10 nM in the test on osteoclast precursors (Osteoclast); 10 to 100 nM in the test on M-NFS-60 cells; 10 to 100 nM in test [1]; < 10 nM in test [2]; < 10 nM in test [3]; 100 to 1000 nM in test [4].
`CC(=O)Nc1cc(Oc2ccc(NC(=O)NC(=O)C3CCOCC3)nc2)ccn1` [Example 5, N-((5-((2-acetamidopyridin-4-yl)oxy)pyridin-2-yl)carbamoyl)tetrahydro-2H-pyran-4-carboxamide]: the IC50 is < 10 nM with osteoclast precursors (Osteoclast); 10 to 100 nM in the test with M-NFS-60 cells; < 10 nM in test [1]; 100 to 1000 nM in test [2]; 10 to 100 nM in test [3]; 100 to 1000 nM in test [4].
Take `CC(=O)Nc1cc(Oc2ccc(NC(=O)NC(=O)C3CCOCC3)nc2C)ccn1` [Example 7, N-((5-((2-acetamidopyridin-4-yl)oxy)-6-methylpyridin-2-yl)carbamoyl)tetrahydro-2H-pyran-4-carboxamide]: the IC50 with osteoclast precursors (Osteoclast) was 10 to 100 nM; in the test on M-NFS-60 cells it was 10 to 100 nM; in test [1], < 10 nM; in test [2], 100 to 1000 nM; in test [3], 10 to 100 nM; in test [4], > 1000 nM.
Take `CC(=O)Nc1cc(Oc2ccc(NC(=O)NC(=O)C(C)(C)C)nc2C)ccn1` [Example 9, N-((5-((2-acetamidopyridin-4-yl)oxy)-6-methylpyridin-2-yl)carbamoyl)pivalamide]: the IC50 is < 10 nM in the test with osteoclast precursors (Osteoclast); < 10 nM in the test on M-NFS-60 cells; < 10 nM in test [1]; > 1000 nM in test [2]; < 10 nM in test [3]; > 1000 nM in test [4].
Turning to `CCC(=O)Nc1cc(Oc2ccc(NC(=O)NC(=O)C(C)(C)C)nc2C)ccn1` [Example 12, N-((6-methyl-5-((2-propionamidopyridin-4-yl)oxy)pyridin-2-yl)carbamoyl)pivalamide], the IC50 in the test on osteoclast precursors (Osteoclast) is 10 to 100 nM; in the test with M-NFS-60 cells, < 10 nM; in test [1] it was 10 to 100 nM; in test [2] it was 100 to 1000 nM; in test [3], < 10 nM; in test [4] it was > 1000 nM.
On to `Cn1cc(C(=O)Nc2cc(Oc3ccc(NC(=O)NC(=O)C(C)(C)C)nc3)ccn2)cn1` [Example 52, 1-methyl-N-(4-((6-(3-pivaloylureido)pyridin-3-yl)oxy)pyridin-2-yl)-1H-pyrazole-4-carboxamide], for which the IC50 was < 10 nM in the test with osteoclast precursors (Osteoclast); < 10 nM with M-NFS-60 cells; 100 to 1000 nM in test [2]; < 10 nM in test [3]; 10 to 100 nM in test [4].
As to `CC(C)(C)C(=O)NC(=O)Nc1ccc(Oc2ccnc(NC(=O)CN3CCCC3)c2)cn1` [Example 53, N-((5-((2-(2-(pyrrolidin-1-yl)acetamido)pyridin-4-yl)oxy)pyridin-2-yl)carbamoyl)pivalamide], the IC50 was 10 to 100 nM in the test on osteoclast precursors (Osteoclast); > 1000 nM with M-NFS-60 cells; > 1000 nM in test [2]; 10 to 100 nM in test [3]; > 1000 nM in test [4].
On to `CN(C)CC(=O)Nc1cc(Oc2ccc(NC(=O)NC(=O)C(C)(C)C)nc2)ccn1` [Example 54, N-((5-((2-(2-(dimethylamino)acetamido)pyridin-4-yl)oxy)pyridin-2-yl)carbamoyl)pivalamide], for which the IC50 with osteoclast precursors (Osteoclast) is 100 to 1000 nM; in the test on M-NFS-60 cells, 100 to 1000 nM; in test [2], > 1000 nM; in test [3], 10 to 100 nM; in test [4], > 1000 nM.
Regarding `CN1CCC(C(=O)Nc2cc(Oc3ccc(NC(=O)NC(=O)C(C)(C)C)nc3)ccn2)C1` (stereo not shown) [Example 55, 1-methyl-N-(4-((6-(3-pivaloylureido)pyridin-3-yl)oxy)pyridin-2-yl)pyrrolidine-3-carboxamide], the IC50 with osteoclast precursors (Osteoclast) was 100 to 1000 nM; with M-NFS-60 cells, > 1000 nM; in test [2] it was > 1000 nM; in test [3] it was 10 to 100 nM; in test [4], > 1000 nM.
Consider `CC(C)(C)C(=O)NC(=O)Nc1ccc(Oc2ccnc(NC(=O)CC#N)c2)cn1` [Example 56, N-((5-((2-(2-cyanoacetamido)pyridin-4-yl)oxy)pyridin-2-yl)carbamoyl)pivalamide], for which the IC50 in the test on osteoclast precursors (Osteoclast) was 100 to 1000 nM; with M-NFS-60 cells, > 1000 nM; in test [2], 100 to 1000 nM; in test [3], 10 to 100 nM; in test [4] it was > 1000 nM.
Regarding `CC(C)C(=O)NC(=O)Nc1ccc(Oc2ccnc(NC(=O)C3CCN(C)CC3)c2)cn1` [Example 57, N-(4-((6-(3-isobutyrylureido)pyridin-3-yl)oxy)pyridin-2-yl)-1-methylpiperidine-4-carboxamide], the IC50 was 100 to 1000 nM in the test on osteoclast precursors (Osteoclast); > 1000 nM with M-NFS-60 cells; > 1000 nM in test [2]; 100 to 1000 nM in test [3]; > 1000 nM in test [4].
As for `Cn1cnc(C(=O)Nc2cc(Oc3ccc(NC(=O)NC(=O)C(C)(C)C)nc3)ccn2)c1` [Example 59, 1-methyl-N-(4-((6-(3-pivaloylureido)pyridin-3-yl)oxy)pyridin-2-yl)-1H-imidazole-4-carboxamide], the IC50 is < 10 nM in the test with osteoclast precursors (Osteoclast); < 10 nM in the test on M-NFS-60 cells; 100 to 1000 nM in test [2]; < 10 nM in test [3]; 100 to 1000 nM in test [4].
Take `CN(C)C1CC(C(=O)Nc2cc(Oc3ccc(NC(=O)NC(=O)C(C)(C)C)nc3)ccn2)C1` (stereo not shown) [Example 60, (1s,3s)-3-(dimethylamino)-N-(4-((6-(3-pivaloylureido)pyridin-3-yl)oxy)pyridin-2-yl)cyclobutanecarboxamide]: the IC50 in the test on osteoclast precursors (Osteoclast) is 10 to 100 nM; with M-NFS-60 cells it was 100 to 1000 nM; in test [2], 100 to 1000 nM; in test [3], 10 to 100 nM; in test [4], > 1000 nM.
In the case of `CN(C)C1CC(C(=O)Nc2cc(Oc3ccc(NC(=O)NC(=O)C(C)(C)C)nc3)ccn2)C1` (stereo not shown) [Example 61, (1r,3r)-3-(dimethylamino)-N-(4-((6-(3-pivaloylureido)pyridin-3-yl)oxy)pyridin-2-yl)cyclobutanecarboxamide], the IC50 in the test on osteoclast precursors was 10 to 100 nM; in the test on M-NFS-60 cells, 100 to 1000 nM; in test [2] it was 100 to 1000 nM; in test [3], 10 to 100 nM; in test [4] it was > 1000 nM.
In the case of `CNC(=O)c1cc(Oc2ccc(NC(=O)NC(=O)C3(C(F)(F)F)CCC3)nc2)ccn1` [Example 72, N-methyl-4-((6-(3-(1-(trifluoromethyl)cyclobutanecarbonyl)ureido)pyridin-3-yl)oxy)picolinamide], the IC50 in the test with osteoclast precursors (Osteoclast) was 10 to 100 nM; in the test on M-NFS-60 cells, 100 to 1000 nM; in test [2] it was > 1000 nM; in test [3], 10 to 100 nM; in test [4], > 1000 nM.
In the case of `CC(C)NC(=O)c1cc(Oc2ccc(NC(=O)NC(=O)C(C)(C)C)nc2)ccn1` [Example 73, N-isopropyl-4-((6-(3-pivaloylureido)pyridin-3-yl)oxy)picolinamide], the IC50 is 10 to 100 nM with osteoclast precursors (Osteoclast); > 1000 nM with M-NFS-60 cells; > 1000 nM in test [2]; 100 to 1000 nM in test [3]; > 1000 nM in test [4].
Consider `CC(C)(C)C(=O)NC(=O)Nc1ccc(Oc2ccnc(C(=O)NC3CC3)c2)cn1` [Example 74, N-cyclopropyl-4-((6-(3-pivaloylureido)pyridin-3-yl)oxy)picolinamide], for which the IC50 with osteoclast precursors (Osteoclast) was 10 to 100 nM; with M-NFS-60 cells, 100 to 1000 nM; in test [2], > 1000 nM; in test [3], 10 to 100 nM; in test [4], > 1000 nM.
Consider `CN1CCC(NC(=O)c2cc(Oc3ccc(NC(=O)NC(=O)C(C)(C)C)nc3)ccn2)CC1` [Example 75, N-(1-methylpiperidin-4-yl)-4-((6-(3-pivaloylureido)pyridin-3-yl)oxy)picolinamide], for which the IC50 in the test with osteoclast precursors (Osteoclast) is 10 to 100 nM; in the test with M-NFS-60 cells, > 1000 nM; in test [2] it was > 1000 nM; in test [3], 100 to 1000 nM; in test [4], > 1000 nM.
In the case of `CC(C)(C)C(=O)NC(=O)Nc1ccc(Oc2ccnc(NC(=O)N3CCCC3)c2)cn1` [Example 78, N-(4-((6-(3-pivaloylureido)pyridin-3-yl)oxy)pyridin-2-yl)pyrrolidine-1-carboxamide], the IC50 is < 10 nM with osteoclast precursors (Osteoclast); < 10 nM in the test with M-NFS-60 cells; 10 to 100 nM in test [2]; < 10 nM in test [3]; 10 to 100 nM in test [4].

Source of the values: patent US9309224B2 (Deciphera Pharmaceuticals, LLC, priority 2013, dated 2016).
